Test results published in patent US8420681B2, “Dioxo-imidazolidine derivatives, which inhibit the enzyme SOAT-1, and pharmaceutical and cosmetic compositions containing them” (Galderma Research & Development, priority 2009, dated 2013).

target: T1, enzyme ACAT-1 (Homo sapiens, UniProt P35610); assay: HepG2 NBD-cholesterol fluorescence test of inhibitory activity towards ACAT-1 (SOAT-1); format: cell-based; details: HepG2 cells, NBD-cholesterol 1 μg/ml, incubation 6 hours at 37° C., fluorescence read (490/540 nm)
T1 construct: endogenous in cells; host or cells: HepG2
T1 sequence (P35610 1-550): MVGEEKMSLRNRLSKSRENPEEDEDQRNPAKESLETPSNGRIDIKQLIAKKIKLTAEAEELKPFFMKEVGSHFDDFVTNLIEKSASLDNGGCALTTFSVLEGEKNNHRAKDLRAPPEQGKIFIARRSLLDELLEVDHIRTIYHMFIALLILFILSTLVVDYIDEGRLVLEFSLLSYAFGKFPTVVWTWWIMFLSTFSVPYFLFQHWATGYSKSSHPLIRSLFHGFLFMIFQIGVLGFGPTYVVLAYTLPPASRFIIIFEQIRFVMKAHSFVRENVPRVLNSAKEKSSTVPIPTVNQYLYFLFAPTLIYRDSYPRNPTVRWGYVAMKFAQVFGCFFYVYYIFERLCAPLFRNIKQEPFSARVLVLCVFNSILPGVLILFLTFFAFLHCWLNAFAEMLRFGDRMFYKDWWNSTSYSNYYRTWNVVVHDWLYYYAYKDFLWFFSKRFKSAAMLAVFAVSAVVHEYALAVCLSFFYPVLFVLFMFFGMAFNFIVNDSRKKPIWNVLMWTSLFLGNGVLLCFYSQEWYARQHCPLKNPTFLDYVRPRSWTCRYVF
Experimental: The compounds (I) according to the invention, and also the pharmaceutically acceptable salts, solvates and/or hydrates thereof, have inhibitory properties on the enzyme SOAT-1. This inhibitory activity on the enzyme SOAT-1 is measured according to a HepG2 primary enzymatic test, as described in Example 23.
The compounds of formula (I) according to the invention were subjected to a test for evaluating their inhibitory activity towards the enzyme ACAT-1, inspired by the following publication: “Identification of ACAT1- and ACAT2-specific inhibitors using a novel, cell based fluorescence assay: individual ACAT uniqueness”, J. Lipid. Res. (2004) vol. 45, pages 378-386.
The principle of this test is based on the use of NBD-cholesterol, a cholesterol analogue whose fluorescence depends on its environment. When this molecule is in a polar environment, it is weakly fluorescent, whereas in a non-polar environment, it is strongly fluorescent. Free NBD-cholesterol becomes inserted in cell membranes and is weakly fluorescent in this polar environment. When NBD-cholesterol is esterified with ACAT, the NBD-cholesterol ester enters non-polar lipid droplets and is then strongly fluorescent.
The method below is applied: HepG2 cells are incubated in the presence of NBD-cholesterol (1 μg/ml) and of the test compound of formula (I) in black 96-well transparent-bottomed plates, at a rate of 30 000 cells per well. After incubation for 6 hours at 37° C. under 5% CO2, the medium is removed by turning upside-down and the cells are washed with twice 100 μl of PBS. After addition of 50 μl of lysis buffer (10 mM NaPO4, 1% Igepal), the plates are shaken for 5 minutes and the fluorescence is read (excitation at 490 nm, emission at 540 nm) on a Fusion machine (Perkin-Elmer).

Point of comparison: `CCC(NC(=O)CN1C(=O)N(c2ccc(C)cc2)C2(CCCCC2)C1=O)c1ccc(C)cc1` (stereo not shown) [Compound 13, 2-(2,4-dioxo-1-p-tolyl-1,3-diaza-spiro[4.5]dec-3-yl)-N-(1-p-tolyl-propyl)acetamide], IC50 60 nM. Against it:
- CC[C@H](NC(=O)CN1C(=O)N(c2ccc(C)cc2)C2(CCCCC2)C1=O)c1ccccc1 [Compound 6, 2-(2,4-dioxo-1-p-tolyl-1,3-diaza-spiro[4.5]dec-3-yl)-N-((S)-1-phenylpropyl)-acetamide] — 1.7-fold lower, 36 nM
- CCC(NC(=O)CN1C(=O)N(c2ccc(C)cc2)C2(CCCCC2)C1=O)c1ccccc1 (stereo not shown) [Compound 4, 2-(2,4-dioxo-1-p-tolyl-1,3-diaza-spiro[4.5]dec-3-yl)-N-(1-phenyl-propyl)acetamide] — within 1.5-fold, 50 nM
- CCCC(NC(=O)CN1C(=O)N(c2ccc(C)cc2)C2(CCCCC2)C1=O)c1ccccc1C (stereo not shown) [Compound 8, 2-(2,4-dioxo-1-p-tolyl-1,3-diaza-spiro[4.5]dec-3-yl)-N-(1-o-tolyl-butyl)acetamide] — 1.9-fold lower, 31 nM
- Cc1ccc(N2C(=O)N(CC(=O)NC(c3ccccc3C)C(C)C)C(=O)C23CCCCC3)cc1 (stereo not shown) [Compound 9, 2-(2,4-dioxo-1-p-tolyl-1,3-diaza-spiro[4.5]dec-3-yl)-N-(2-methyl-1-o-tolylpropyl)-acetamide] — 1.7-fold higher, 100 nM
- CCC(NC(=O)CN1C(=O)N(c2ccc(C)cc2)C2(CCCCC2)C1=O)c1cccc(C(F)(F)F)c1 (stereo not shown) [Compound 17, 2-(2,4-dioxo-1-p-tolyl-1,3-diaza-spiro[4.5]dec-3-yl)-N-[1-(3-trifluoromethyl-phenyl)propyl]-acetamide] — 6.7-fold lower, 9 nM
- Cc1ccc(N2C(=O)N(CC(=O)NC(c3ccccc3)C(C)C)C(=O)C23CCCCC3)cc1 (stereo not shown) [Compound 19, 2-(2,4-dioxo-1-p-tolyl-1,3-diaza-spiro[4.5]dec-3-yl)-N-(2-methyl-1-phenylpropyl)-acetamide] — 2.6-fold lower, 23 nM
